Columns and labels:
Assay type in all cases: cell-based, human
[1] = tested on: LNCaP prostate cancer cells; assay: Eight-day colony formation assay, LNCaP
Protocol: We sought to identify compounds that would inhibit the growth of cancer cells, but that also did so selectively. Inhibition of cancer cell growth is a highly sought after attribute of anticancer agents. This was assessed by measuring the ability of a compound to inhibit cell growth in eight-day colony formation assays, examining concentrations ranging from 0.017 to 40 μM. Breast, colon, lung and prostate cancer are four of the most common causes of cancer in the United States, are major causes of cancer cell death, and were examined.[64] Two cell lines for each cancer type were assessed: A549 (adenocarcinoma) and H226 (squamous carcinoma) for lung, MCF-7 (estrogen receptor [ER] positive) and MDA-MB-231 (ER negative) for breast, LNCaP (androgen receptor [AR] positive) and PC3-M (AR negative) for prostate, and HCT116 (wild type p53, mutated KRAS) and HT29 (p53 mutant) for colon.[65]
In considering effect on cancer cells, for each compound and each cell line tested we calculated the efficacy ratio, i.e., efficacy ratio = (percent of remaining cancer cell colonies)/(percent of remaining bone marrow colonies), at 8 days after treatment with 40 μM compound (S4 Fig). We considered those with an efficacy ratio below 0.5 as active and at least partially selective. The stringency of this is highlighted by considering the effect of 5FU on colon cancer, where it is frequently used clinically in proven curative settings, as well as proven life prolonging settings.[70, 71] […] Even at 5.7 μM, where 5FU is toxic to bone marrow, with hematopoietic colony formation at 38% of control, the efficacy ratio for HT29 cells has only dropped to 0.52. […] It can be seen that compounds segregate to protein sites. Specifically, of 10 compounds meeting this activity criteria (i.e., efficacy ratio <0.5), 3 were directed at the Dxr2 site, 3 at FolC2, 2 at FolC1, 1 at Dxr1 and 1 at TYLT.
Eight-day colony formation assays of cancer cells were performed as described by us.[87] Briefly, 0.5–1.0 × 10^3 cells were seeded into a 12 well plate, after 24 hours compound added and eight days later colonies (of 3 or more cells) were scored after trypan blue staining. Conditions were in replicates of N = 2. All compounds were stored under desiccated conditions in a sealed container at minus 20°C upon arrival. One day prior to use, they were placed into DMSO, stored at […] as stock solutions, thawed just prior to use, and not reused.

[2] = tested on: HT29, MDA-MB-231 and H226; assay: NCI-60 cell line screen, other cell lines; details: 10 μM X 48 hours
Protocol: (§1) Above findings support the importance of Dxr2 and FolC2 sites, and of Dxr2-017 and FolC2-001 compounds, respectively. The predicted poses of Dxr2-017 bound to the Dxr2 site and FolC2-001 bound to the FolC2 site are shown (Fig 7). The NCI-60 cell line screen evaluates compound growth inhibition and cell toxicity in a highly standardized manner across 60 different cell lines. Dxr2-017 and FolC2-001 were evaluated in this assay (S5 Fig). NCI-60 screens evaluate compounds at 10 μM X 48 hours. […] Of high interest, in the NCI-60 screen Dxr2-017 had relatively high activity against melanoma cell lines, inducing cell death in 5 cell lines ranging from 25–65%, and inhibiting growth in 4 cell lines ranging from 76–96%. Its impact on cell death represents the most striking relative difference in response across cell lines.

melanoma cell lines = assay: NCI-60 cell line screen, melanoma cell lines; details: 10 μM X 48 hours
Protocol: as §1

M14 cells = assay: Cell cycle analysis by flow cytometry, M14; details: 20 nM, eight days
Protocol: Fig 8. Dxr2-017 inhibits melanoma cell growth through induction of anoikis. (A) Inhibition of melanoma cell growth. Cells were treated with different concentrations of Dxr2-017 and formation of colonies at eight days depicted. Data are expressed as percent of untreated control and are the mean ± SEM (N=3 replicates) of a single experiment. (B) No effect on cycle progression. M14 and SK-MEL-5 cells were treated for 8 days with 20 and 50 nM Dxr2-017, respectively, and phase of cell cycle determined by flow cytometry. Data are the mean ± SEM (N=3). *denotes P-value ≤0.05. (C) Transition to floating cells. Cells were treated for three days with different Dxr2-017 concentrations. Depicted are representative light photomicrographs at 20X; scale bar is150 μm. Blue and green arrows denote adherent and floating cells, respectively. (D) Cleaved caspase 3 is induced in floating cells. Cells were treated for 3 days, cell lysate from only adherent cells, or from adherent and floating cells combined, was probed by Western blot for cleaved caspase 3. All experiments were repeated at separate times, yielding similar results.
A total of 1 × 10^4 M14 cells and 1 × 10^4 SK-MEL-5 cells were seeded into 10 cm culture dishes. […] Cells were analyzed by flow cytometry (FACSCalibur3 analyzer, BD Biosciences), and the percentage of cells within G0/G1, S, and G2/M phases were determined via analysis using Modfit LT 4.0.5.

c1ccc2sc(-c3ccc(CNc4ccc5nnnn5n4)o3)nc2c1 [Dxr2-017]
efficacy ratio (cancer cell colonies to bone marrow colonies at 8 days) ([1]; 5.7 μM): 0.49 | efficacy ratio (cancer cell colonies to bone marrow colonies at 8 days) ([1]; 40 μM): 0.05 | activity in NCI-60 screen [2]: activity against HT29, MDA-MB-231 and H226 | cell death (melanoma cell lines; range over 5 melanoma cell lines): 25–65% | inhibition at 10 µM (melanoma cell lines; Homo sapiens, range over 4 melanoma cell lines, read-out: growth inhibition): 76 to 96% | change in cell cycle parameters (M14 cells): little-to-no change in cell cycle parameters

Reference: article doi:10.1101/2024.05.17.594634, “Protein Structure Inspired Drug Discovery” (bioRxiv, 2024)
